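Interpolation was linear, between the two tested concentrations surrounding the appropriate level; five concentrations were tested over 48 hours in 96-well plates. GI50: concentration for 50% inhibition of growth.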 Activity calls are given as the source filed them. Cut-off read from the data, not from the text of the source: active = GI50 up to about 1.1 µM and inactive = higher.
Columns and labels:
Experiment in all cases: inhibition of tumour cell growth, NCI panel, 48 h
[1] = system: HOP-62
[2] = system: RXF 393
[3] = system: HOP-92
[4] = system: K562
[5] = system: M19-MEL
[6] = system: 786-0
[7] = system: SW-620
[8] = system: SK-OV-3
[9] = system: HCC 2998
[10] = system: TK-10
[11] = system: ACHN
[12] = system: SF-268
[13] = system: EKVX
[14] = system: SR
[15] = system: HCT-15
[16] = system: NCI-H460

NNC(=S)N/N=C/C(=C/Nc1ccccc1)[N+](=O)[O-]
GI50 [1]: > 100 µM (inactive) | GI50 [2]: > 100 µM (inactive) | GI50 [3]: > 100 µM (inactive) | GI50 [4]: 10 µM (inactive) | GI50 [5]: > 100 µM (inactive) | GI50 [6]: > 100 µM (inactive) | GI50 [7]: > 100 µM (inactive) | GI50 [8]: > 100 µM (inactive) | GI50 [9]: > 100 µM (inactive) | GI50 [10]: > 100 µM (inactive) | GI50 [11]: > 100 µM (inactive) | GI50 [12]: > 100 µM (inactive) | GI50 [13]: > 100 µM (inactive) | GI50 [14]: 1 µM (active)

O=c1c2cc(Br)ccc2nc(-c2ccccc2)n1NCC1(O)OCC(O)C(O)C1O (configuration not stated)
GI50 [1]: > 100 µM (inactive) | GI50 [15]: > 100 µM | GI50 [2]: > 100 µM (inactive) | GI50 [16]: > 100 µM (inactive) | GI50 [4]: > 100 µM (inactive) | GI50 [5]: > 100 µM (inactive) | GI50 [6]: > 100 µM (inactive) | GI50 [7]: > 100 µM (inactive) | GI50 [8]: > 100 µM (inactive) | GI50 [11]: > 100 µM (inactive) | GI50 [12]: > 100 µM (inactive) | GI50 [13]: > 100 µM (inactive) | GI50 [14]: 48.8 µM (inactive)

CCOC(=O)c1cc(=O)n(C)c(=O)n1C
GI50 [1]: > 100 µM (inactive) | GI50 [15]: > 100 µM | GI50 [2]: > 100 µM (inactive) | GI50 [16]: > 100 µM (inactive) | GI50 [3]: > 100 µM (inactive) | GI50 [4]: > 100 µM (inactive) | GI50 [5]: > 100 µM (inactive) | GI50 [6]: > 100 µM (inactive) | GI50 [7]: > 100 µM (inactive) | GI50 [8]: > 100 µM (inactive) | GI50 [9]: > 100 µM (inactive) | GI50 [10]: > 100 µM (inactive) | GI50 [11]: > 100 µM (inactive) | GI50 [12]: > 100 µM (inactive) | GI50 [13]: > 100 µM (inactive)

COC1=C(C(=O)OC(C)(C)C)C23CCCCC2(C(C(=O)OC(C)(C)C)=C(OC)C3C(=O)OC(C)(C)C)C1C(=O)OC(C)(C)C (configuration not stated)
GI50 [1]: > 100 µM (inactive) | GI50 [15]: 15.2 µM | GI50 [2]: 27.6 µM (inactive) | GI50 [16]: 11.5 µM (inactive) | GI50 [3]: 7.05 µM (inactive) | GI50 [4]: 9.64 µM (inactive) | GI50 [5]: 25 µM (inactive) | GI50 [6]: > 100 µM (inactive) | GI50 [7]: 60.3 µM (inactive) | GI50 [8]: > 100 µM (inactive) | GI50 [9]: 53.6 µM (inactive) | GI50 [10]: > 100 µM (inactive) | GI50 [11]: 20.1 µM (inactive) | GI50 [12]: > 100 µM (inactive) | GI50 [13]: 50.7 µM (inactive) | GI50 [14]: 19.6 µM (inactive)

[N-]=[N+]=Nc1cc(=O)n(-c2ccccc2)c2ccccc12
GI50 [1]: > 100 µM (inactive) | GI50 [15]: > 100 µM | GI50 [2]: 63.1 µM (inactive) | GI50 [16]: > 100 µM (inactive) | GI50 [4]: > 100 µM (inactive) | GI50 [5]: > 100 µM (inactive) | GI50 [6]: > 100 µM (inactive) | GI50 [7]: > 100 µM (inactive) | GI50 [8]: > 100 µM (inactive) | GI50 [10]: > 100 µM (inactive) | GI50 [11]: > 100 µM (inactive) | GI50 [12]: > 100 µM (inactive) | GI50 [14]: > 100 µM (inactive)

COc1ccc(C(C)Nc2cc(OC)c(OC)c(OC)c2)cc1 (configuration not stated)
GI50 [1]: 2.88 µM (inactive) | GI50 [15]: 3 µM | GI50 [2]: 3.27 µM (inactive) | GI50 [16]: 3.03 µM (inactive) | GI50 [3]: 1.56 µM (inactive) | GI50 [4]: 2.19 µM (inactive) | GI50 [5]: 4.75 µM (inactive) | GI50 [6]: 6.65 µM (inactive) | GI50 [7]: 2.88 µM (inactive) | GI50 [8]: 4.4 µM (inactive) | GI50 [9]: 10.3 µM (inactive) | GI50 [10]: > 29.7 µM (inactive) | GI50 [11]: 8.87 µM (inactive) | GI50 [12]: 2.9 µM (inactive) | GI50 [13]: > 24.9 µM (inactive) | GI50 [14]: 3.1 µM (inactive)

N#Cc1ccccc1NC(=O)/C(=N\N)C(C(=O)c1ccncc1)C1OC(=O)c2ccccc21 (configuration not stated)
GI50 [1]: > 100 µM (inactive) | GI50 [15]: > 100 µM | GI50 [16]: > 100 µM (inactive) | GI50 [3]: > 100 µM (inactive) | GI50 [4]: > 100 µM (inactive) | GI50 [5]: > 100 µM (inactive) | GI50 [6]: > 100 µM (inactive) | GI50 [7]: > 100 µM (inactive) | GI50 [8]: > 100 µM (inactive) | GI50 [9]: > 100 µM (inactive) | GI50 [10]: > 100 µM (inactive) | GI50 [11]: > 100 µM (inactive) | GI50 [12]: > 100 µM (inactive) | GI50 [13]: > 100 µM (inactive) | GI50 [14]: > 100 µM (inactive)

O=C(O)CCC(=O)OCN1C(=O)C2C3C=CC(C2C1=O)C1C2C(=O)N(COC(=O)CCC(=O)O)C(=O)C2C31 (configuration not stated)
GI50 [1]: > 100 µM (inactive) | GI50 [15]: 32.4 µM | GI50 [2]: > 100 µM (inactive) | GI50 [16]: 32.5 µM (inactive) | GI50 [3]: > 100 µM (inactive) | GI50 [4]: > 100 µM (inactive) | GI50 [5]: > 61.1 µM (inactive) | GI50 [6]: > 62.7 µM (inactive) | GI50 [7]: 38.4 µM (inactive) | GI50 [8]: > 100 µM (inactive) | GI50 [9]: > 100 µM (inactive) | GI50 [10]: > 100 µM (inactive) | GI50 [11]: > 67 µM (inactive) | GI50 [12]: > 78.9 µM (inactive) | GI50 [13]: > 100 µM (inactive) | GI50 [14]: 30.8 µM (inactive)

COc1ccc(/C(=C\c2cc(OC)c(OC)c(OC)c2)C(=O)O)cc1
GI50 [1]: 37.1 µM (inactive) | GI50 [15]: 32.1 µM | GI50 [2]: 18.8 µM (inactive) | GI50 [16]: 35.6 µM (inactive) | GI50 [3]: 33.8 µM (inactive) | GI50 [4]: 25.8 µM (inactive) | GI50 [5]: 52 µM (inactive) | GI50 [6]: 38 µM (inactive) | GI50 [7]: 35 µM (inactive) | GI50 [10]: 87.9 µM (inactive) | GI50 [11]: 72.8 µM (inactive) | GI50 [12]: 51.6 µM (inactive) | GI50 [13]: 57 µM (inactive) | GI50 [14]: 38.8 µM (inactive)
